The values that follow come from US5849737A, “Compositions and methods for treating pain” (priority 1995, dated 1998).

Entries after “also recorded” stand apart in the source; their conditions may differ. Read-outs that look alike come from different tables or passages of the source.

One series has as its system trigeminal neuralgia. The settings on record: oral; cited from earlier work.
Another series relates to neuropathic pain states. The settings on record: orally available lidocaine congeners; systemically administered local anesthetics; cited from earlier work.
The subject of series [1] is tactile allodynia (paw withdrawal thresholds). Description: Tactile allodynia (50% paw withdrawal threshold, von Frey) after intrathecal drug, L5/L6 spinal nerve ligated rats. The format is in vivo, Male Harlan Sprague-Dawley rats. The settings on record: IT; lidocaine 500 μg, MEGX 500 μg, 3-OH L 58 μg. The method, then:
(§1) Male Harlan Sprague-Dawley rats were used (100-200 g). Rats were housed 2-3 to a cage with corn cob bedding and Purina rat chow and water ad libitum, in a standard facility with a 12 h/ 12 h day/night cycle. After surgical procedures involving chronic indwelling catheter insertion, animals were housed singly to prevent catheter damage.
Rats were allowed to recover 5-7 days before further testing or surgeries.
The catheters were 9 cm in intrathecal length and terminated near the lumbar enlargement. The rostral 3 cm of catheter was tunneled under the skin to externalize between the ears. Rats with neurologic deficits were discarded.
(§2) Monoethylglycinexylidide (MEGX) was dissolved in physiologic saline; 3-hydroxylidocaine (3-OH L) was dissolved in DMSO for intravenous administration.
Intravenous drugs were delivered to awake, unrestrained rats by slow infusion using a syringe pump (Harvard apparatus 22). Intrathecal drugs were delivered to awake, briefly restrained rats in a volume of 10 μl, followed by 10 μl of vehicle flush, using a calibrated tubing extension with a 30-gauge adapter fitting the implanted intrathecal catheter, attached to a geared Hamilton 100 μl glass syringe. IT drug delivery was monitored by observing the advancement of a small air bubble down the tubing.
Rats were placed in a plastic cage with an open wire mesh bottom and allowed to accommodate for approximately fifteen minutes. […] In brief, von Frey hairs were sequentially applied using an up-and-down paradigm to the left mid-plantar hindpaw with sufficient force to cause slight filament buckling. Positive responses were noted if the paw was sharply withdrawn. […] Otherwise, PWT were calculated by noting the stimulus level at which the first change in behavior occurred, collecting four additional responses to the continued up-and-down oscillation of stimulus presentation around the response threshold, and interpolating the 50% response threshold. […] The following equation was used to compute %MPE: [formula]
(§3) Plasma drug levels and PWT were correlated using linear regression. Serially measured PWT and %MPE were compared using repeated measures ANOVA.

Another series deals with motor function. Description: Motor and behavioral effects after intrathecal administration. The procedure:
as §1
To induce neuropathy, rats were anesthetized with halothane/oxygen, and the left L5/L6 spinal nerves were exposed via a dorsal midline incision and ligated tightly with 6-0 silk suture according to the reported method [Kim S H et al., Pain 50:355-363 (1992)]. Rats were allowed to recover 5-7 days before further testing or surgeries.
Intrathecal PE-10 catheters were implanted under halothane/oxygen anesthesia [Yaksh T L et al., Physiol Behav 17:1031-1036 (1976)]. The catheters were 9 cm in intrathecal length and terminated near the lumbar enlargement. The rostral 3 cm of catheter was tunneled under the skin to externalize between the ears. Rats with neurologic deficits were discarded.
as §2
Intravenous drugs were delivered to awake, unrestrained rats by slow infusion using a syringe pump (Harvard apparatus 22). […] IT drug delivery was monitored by observing the advancement of a small air bubble down the tubing.

The subject of series [2] is tactile allodynia (paw withdrawal thresholds). Description: Mechanical allodynia after single i.p. dose in SD rats (left L5/L6 spinal nerve ligation). The format is in vivo.
The test system is the same in series [3]. In words: Mechanical allodynia after single i.p. dose in DA rats (left L5/L6 spinal nerve ligation). The format is in vivo. Conditions: for effect on tactile allodynia, DA rats: single i.p. dose, lidocaine 60 mg/kg, 3-OHL 15 mg/kg (P<0.002).
Series [4] shares this test system. Conditions: IV systemic lidocaine, cited from earlier work.
Series [5] shares this test system. Conditions: after termination of motor block [Chaplan et al. (1993)]; cited from earlier work.
The subject of series [6] is acutely injured peripheral terminals. The settings on record: in vitro, protein-free system; cited from earlier work.
The next series has as its system neuromata. Conditions: intravenous, whole animals; cited from earlier work.
Another series deals with dorsal root ganglion. The settings on record: intravenous, whole animals; cited from earlier work.
Series [7] has as its system sural nerve evoked after discharges. The settings on record: IV, 1 mg/kg; cited from earlier work.
Series [8] deals with polysynaptic C-fiber evoked flexor responses. Conditions: IV, 1-5 mg/kg, cited from earlier work.
Series [9] has as its system wide dynamic range neurons. Conditions: IV, 3-4 mg/kg, rat; cited from earlier work.
Series [10] concerns painful diabetic neuropathy. The settings on record: cited from earlier work; for clinical effect in painful diabetic neuropathy: lidocaine intravenous, mexiletine oral.
The test system of series [11] is peripheral nerve injury pain. The settings on record: lidocaine intravenous; mexiletine oral; cited from earlier work.
In series [12] the test system is centrally organized nociceptive flexion response. Conditions: painful diabetic neuropathy; cited from earlier work.
The conditions of series [13]: DA rats; some species of rats; cited from earlier work.
Series [14] concerns tactile allodynia (paw withdrawal thresholds). Description: Tactile allodynia (50% paw withdrawal threshold, von Frey) after intravenous drug, L5/L6 spinal nerve ligated rats. The format is in vivo, Male Harlan Sprague-Dawley rats. The text has this: For intravascular access, external jugular catheters were fashioned from PE-50 tubing and inserted into an external jugular vein under halothane/oxygen anesthesia. Arterial catheters were also fashioned from PE-50 with a small bouton 1 cm from the intravascular end for suture securing; they were inserted into a carotid artery, taking care to spare the surrounding nerves. All catheters were flushed with heparinized saline (10 U/ml) and tunneled subcutaneously to emerge at the posterior base of the neck, and capped when not in use. […] Rats were placed in a plastic cage with an open wire mesh bottom and allowed to accommodate for approximately fifteen minutes. A series of 8 von Frey filaments with logarithmically incremental stiffness (0.41, 0.70, 1.20, 2.00, 3.63, 5.50, 8.50, and 15.10 g) (Stoelting, Wood Dale, Ill.) was used to determine the 50% threshold for paw withdrawal to light mechanical stimuli (PWT). In brief, von Frey hairs were sequentially applied using an up-and-down paradigm to the left mid-plantar hindpaw with sufficient force to cause slight filament buckling. Positive responses were noted if the paw was sharply withdrawn. […] Otherwise, PWT were calculated by noting the stimulus level at which the first change in behavior occurred, collecting four additional responses to the continued up-and-down oscillation of stimulus presentation around the response threshold, and interpolating the 50% response threshold. […] The following equation was used to compute %MPE: [formula] Plasma drug levels and PWT were correlated using linear regression. Serially measured PWT and %MPE were compared using repeated measures ANOVA.

The nature of series [15]: Toxicity and plasma bupivacaine levels on intravenous infusion (GC assay). The format is in vivo, Male Harlan Sprague-Dawley rats.
Excerpt: For intravascular access, external jugular catheters were fashioned from PE-50 tubing and inserted into an external jugular vein under halothane/oxygen anesthesia. Arterial catheters were also fashioned from PE-50 with a small bouton 1 cm from the intravascular end for suture securing; they were inserted into a carotid artery, taking care to spare the surrounding nerves. All catheters were flushed with heparinized saline (10 U/ml) and tunneled subcutaneously to emerge at the posterior base of the neck, and capped when not in use.
For bupivacaine assays, samples were obtained by withdrawing and discarding approximately 0.3 cc of blood from arterial cannulae, and then withdrawing samples of approximately 0.5 cc volume. These samples were centrifuged and the plasma supernatant was frozen at -20° C. until analysis. […]
Bupivacaine was quantitated by capillary GC with nitrogen-phosphorus detection [Bjork M et al., Journal of Chromatography 533:229-234 (1990)]. […] Split injections (1.5:1) were performed with a Hewlett Packard 7673A automatic sampler, and the chromatograms were recorded and analyzed with H-P Chemstation (MSDOS) software. […]
as §3

Series [16] relates to P45ONF(human) (P-450 PB-1(rat)(IIIA4) enzyme). Conditions: lidocaine metabolite formation; cited from earlier work.

In the case of `Cc1cccc(C)c1NC(=O)C(C)N` (centres unmarked) [tocainide], in the series with trigeminal neuralgia, the “clinical effect in trigeminal neuralgia” value is on record as “analgesic effects”. Moreover, in the series with neuropathic pain states, the “clinical efficacy in neuropathic pain states” value is “far from universally effective” and the “tolerability in neuropathic pain states” value is listed as “in many cases are poorly tolerated due to side effects, including some which may be life-threatening”.
Take `CCN(CC)CC(=O)Nc1c(C)cccc1C` [lidocaine]: in series [1], the “effect on allodynia thresholds after IT delivery” value is “no effect on allodynia was seen”. In the series on motor function (500 μg), the “duration of motor dysfunction after IT delivery” value is given as “approximately 10 minutes”. Further, in the series with motor function (lidocaine 500 μg, MEGX 500 μg, 3-OH L 58 μg), the “motor effects after IT delivery” value is listed as “acute onset of hindquarter flaccidity”. Also, in series [2] (lidocaine 60 mg/kg i.p. single dose, N=6, strain difference P<0.002), the “duration of tactile allodynia alleviation, SD rats” value was “more than 16 days”. Besides, the “effect on tactile allodynia, SD rats” value in [2] (single i.p. dose, lidocaine 60 mg/kg, 3-OHL 15 mg/kg (P<0.05)) is “sustained effect on tactile allodynia in SD rats; also recorded: persistent effects of lidocaine against allodynia”. Further, the “time of transient effect, DA rats” value in series [3] (lidocaine 60 mg/kg i.p.) is 30 min. Further, the “effect on tactile allodynia, DA rats” value was “not effective in this regard in DA rats; also recorded: no sustained effect of lidocaine in DA rats” in [3] and “no sustained effect whatsoever” in series [3] (listed as Lidocaine). Further, the “effect on allodynia, intravenous route (earlier reports)” value in series [4] (listed as Lidocaine) is recorded as “effective against allodynia by the intravenous”; in series [4], “long lasting effect by the IV route”. In addition, the “anti-allodynic effect, IT / regional route (earlier report)” value in series [5] is reported as “no anti-allodynic effect after termination of motor block”. Moreover, the “ED50, suppression of spontaneous activity” value in series [6] was 5.7 µg/mL. Besides, in the series with neuromata, the “ED50 for discharge suppression in neuromata” value is reported as 6 mg/kg. Besides, in the series with dorsal root ganglion, the “ED50 for discharge suppression, dorsal root ganglion” value is recorded as 1 mg/kg. Further, in series [7], the “suppression of sural nerve evoked after discharges” value is reported as “suppression of polysynaptic (spinal cord) sural nerve evoked after discharges”. Further, the “conduction block at the peripheral terminal” value in series [8] is recorded as “without evidence of conduction block at the peripheral terminal”. For the same compound, the “effect on polysynaptic C-fiber evoked flexor responses” value in [8] (mustard oil and noxious heat) is “suppresses polysynaptic C-fiber evoked flexor responses to mustard oil and noxious heat”. Also, the “effect on wide dynamic range neuron activity” value in [9] is “selectively suppresses the increased wide dynamic range neuronal activity seen ipsilateral to chronic peripheral nerve injury; also recorded: suppresses noxious-evoked activity in wide dynamic range neurons in the rat”. In addition, the thermal thresholds entry in series [10] (intravenous lidocaine, painful diabetic neuropathy) is “without alteration in thermal thresholds”. Also, the “clinical effect in painful diabetic neuropathy” value in series [10] was “reduced pain scores for several days”. For the same compound, the “clinical effect in peripheral nerve injury pain” value in [11] was “decreases in spontaneous pain, albeit of short duration”. The nociceptive flexion response result in series [12] is on record as “suppression of the centrally organized nociceptive flexion response”. Besides, in series [13], the “3-hydroxylation / production of 3-OH L in rats” value is on record as “lack of 3-hydroxylation in this strain”.
Turning to `CCCCN1CCCCC1C(=O)Nc1c(C)cccc1C` (centres unmarked) [bupivacaine], the “effect of intravenous infusion on allodynia” value in series [14] (IV infusion, up to plasma concentrations which caused evident toxicity, 15 samples from 4 rats, P=0.11, linear regression) is “inactive against allodynia; also recorded: no effect on allodynia”. Moreover, the “correlation of plasma bupivacaine levels with %MPE (allodynia suppression)” value in series [14] (IV, 4 rats, 15 samples, plasma levels up to toxic range (FIG. 1)) was “lack of correlation”. In addition, in series [15] (IV infusion), the “toxicity on intravenous infusion” value is “ataxia and lethargy; also recorded: Higher doses resulted in seizure”. Also, the “mean plasma level at higher doses that resulted in seizure” value in [15] (IV, N=4, unit not given) turned out to be 7.4±0.7.
For the compound `Cc1cccc(C)c1OCC(C)N` (centres unmarked) [mexiletine], the “clinical effect in painful diabetic neuropathy” value in series [10] was “analgesic effects”. Further, the “clinical effect in peripheral nerve injury pain” value in series [11] is “analgesic effects”. In the series on neuropathic pain states, the “clinical efficacy in neuropathic pain states” value was “far from universally effective” and the “tolerability in neuropathic pain states” value was “in many cases are poorly tolerated due to side effects, including some which may be life-threatening”.
On to `CCNCC(=O)Nc1c(C)cccc1C` [MEGX, Monoethylglycinexylidide], for which the “allodynia suppression by IV MEGX” value in [14] (20 mg/kg, infused over 60 minutes) is recorded as “completely devoid of anti-allodynia activity by the intravenous route; also recorded: no effect whatsoever”. In series [14] (MEGX 20 mg/kg IV infused over 60 minutes, baseline 1.7±0.6 g), this compound registered a PWT post infusion of 1.96 ± 0.4 g. Further, the “effect on allodynia thresholds after IT delivery” value in series [1] is listed as “not MEGX, suppressed allodynia; also recorded: no effect on PWT at this limiting dose”. Also, the “enzyme producing the metabolite MEGX” value in series [16] is “produced by the P45ONF(human) (P-450 PB-1(rat)(IIIA4) enzyme”.
